{"source": "patent US20210130826A1", "about": "“METHODS OF MODULATING ANTISENSE ACTIVITY” (IONIS PHARMACEUTICALS, INC., priority 2018, published 2021)", "key": {"Malat-1": {"test_system": "Malat-1", "experiment": "Malat-1 RNA by RT-qPCR in A431 cells", "assay_type": "cell-based, human", "details": "MOE gapmer", "experimental": "RT-qPCR analysis was performed to detect RNA levels of Malat-1 using primer probe set RTS2736. Results were normalized to cyclophilin A levels (measured using HTS3936). […] Each table below represents results from an individual assay."}, "[1]": {"test_system": "mTOR kinase activity (pS6/S6 levels)", "experiment": "Liver protein analysis in mice: pS6/S6", "assay_type": "in vivo", "details": "Table 30; mouse liver 24 h; oligonucleotide 5 mg/kg (or PBS); Treatment AZD8055 5 mg/kg at 0, 12, 22 h", "protocol": "The following experiments were performed to determine if the effects of autophagy modulators on antisense activity in vitro can be observed in vivo. […] Following administration of modified oligonucleotide, mice were administered 1% DMSO or 5 mg/kg AZD8055 in 1% DMSO at three time points over 24 hours: at the time of administration of the modified oligonucleotide, and 12 and 22 hours after administration of the modified oligonucleotide. A group of control mice was administered PBS at time 0 and 1% DMSO at 0, 12, and 22 hours. Mice were sacrificed at 24 hours after administration of the modified oligonucleotide and tissues were collected for analysis.\nProtein analysis was carried out on liver tissue using standard procedures. All proteins were normalized to α-tubulin. […] The antibody against LC3B (ab48394) was purchased from Abcam. […] Antibody against P62 (GP62-C) was purchased from Progen.\nA group of control mice was administered PBS at time 0 and 1% DMSO at 0, 12, and 22 hours. Mice were sacrificed at 24 hours after administration of the modified oligonucleotide and tissues were collected for analysis. […]"}, "LC3B": {"test_system": "LC3B", "experiment": "Liver protein analysis in mice: LC3B II/I ratio", "assay_type": "in vivo", "details": "Table 30; mouse liver 24 h; oligonucleotide 5 mg/kg (or PBS); Treatment AZD8055 5 mg/kg at 0, 12, 22 h", "experimental": "(§1) The following experiments were performed to determine if the effects of autophagy modulators on antisense activity in vitro can be observed in vivo. Groups of 3-4 8-week-old male C57bl/6J mice were administered 5 mg/kg control oligonucleotide 141923, or 5 mg/kg antisense oligonucleotide 399462. Following administration of modified oligonucleotide, mice were administered 1% DMSO or 5 mg/kg AZD8055 in 1% DMSO at three time points over 24 hours: at the time of administration of the modified oligonucleotide, and 12 and 22 hours after administration of the modified oligonucleotide. A group of control mice was administered PBS at time 0 and 1% DMSO at 0, 12, and 22 hours. Mice were sacrificed at 24 hours after administration of the modified oligonucleotide and tissues were collected for analysis.\n(§2) Autophagy activation was confirmed in livers by determining suppression of mTOR kinase activity (pS6/S6 levels), determining an increased LC3B II/I ratio (a marker for the formation of autophagosomes), and determining p62 degradation (related to the clearance of autophagosomes). Protein analysis was carried out on liver tissue using standard procedures. All proteins were normalized to α-tubulin. Phospho-S6 Ribosomal Protein (Ser240/244) (2215S), and S6 Ribosomal Protein (2217S) antibodies were obtained from Cell Signaling Technology. The antibody against LC3B (ab48394) was purchased from Abcam. […]"}, "p62": {"test_system": "p62", "experiment": "Liver protein analysis in mice: p62", "assay_type": "in vivo", "details": "Table 30; mouse liver 24 h; oligonucleotide 5 mg/kg (or PBS); Treatment AZD8055 5 mg/kg at 0, 12, 22 h", "experimental": "as §1, §2"}, "Atg7": {"test_system": "Atg7", "experiment": "Atg7 mRNA in mouse liver by RT-qPCR", "assay_type": "in vivo", "details": "Table 31; mouse liver 24 h; oligonucleotide 5 mg/kg; AZD8055 5 mg/kg at 0, 12, 22 h", "experimental": "The following experiments were performed to determine if the effects of autophagy modulators on antisense activity in vitro can be observed in vivo. […] Mice were sacrificed at 24 hours after administration of the modified oligonucleotide and tissues were collected for analysis. […] Atg7 mRNA levels are a marker of the induction of autophagy in treated mouse livers. Results are presented as percent change of RNA, relative to PBS control treated with DMSO, normalized to mouse cyclophilin A measured using mouse primer probe set Cyclophilin-A (forward sequence [NT], designated herein as SEQ ID NO: 38; reverse sequence [NT], designated herein as SEQ ID NO: 39; probe sequence [NT], designated herein as SEQ ID NO: 40). […] Following administration of modified oligonucleotide, groups of mice were either allowed free access to chow (control) or fasted overnight (16 hr fast). Mice were sacrificed at 16 hours after administration of the modified oligonucleotide and tissues were collected for analysis. […] Atg7 mRNA levels are a marker of the induction of autophagy in treated mouse livers. Results are presented in Table 33 relative to mice treated with PBS and allowed normal access to chow. […] Mice were sacrificed at 24 hours after administration of the modified oligonucleotide and tissues were collected for analysis. […]"}}, "data": [{"molecule": "COc1ccc(-c2ccc3c(N4CCOC[C@@H]4C)nc(N4CCOC[C@@H]4C)nc3n2)cc1CO", "note": "[AZD8055]", "values": [{"measurement": "effect of autophagy modulator on modified oligonucleotide activity (in words)", "setting": "Malat-1", "result": "significantly enhanced modified oligonucleotide activity"}, {"measurement": "pS6/S6 ratio", "setting": "[1]", "result": 0.2}, {"measurement": "LC3B II/I ratio", "setting": "LC3B", "result": 2.3}, {"measurement": "P62", "setting": "p62", "result": 0.5}, {"measurement": "Atg7 level (% relative to PBS/DMSO-treated mice)", "setting": "Atg7", "result": 112, "unit": "%"}]}]}
